Values joined by “and” are separate entries in the source; they are usually repeats but may differ in a detail not shown here. Equal values may be shown once. “Also recorded” adds a separate entry of the source.
Experiments:
[1] = target: T1, MRGPRX2 (Homo sapiens, UniProt Q96LB1); test: Calcium imaging of peritoneal mast cells isolated from human MRGPRX2 KI mice; format: cell-based; details: 100 nM antagonist; Cpd 48/80 1 μg/mL; n ≥ 4
T1 sequence (Q96LB1 1-330): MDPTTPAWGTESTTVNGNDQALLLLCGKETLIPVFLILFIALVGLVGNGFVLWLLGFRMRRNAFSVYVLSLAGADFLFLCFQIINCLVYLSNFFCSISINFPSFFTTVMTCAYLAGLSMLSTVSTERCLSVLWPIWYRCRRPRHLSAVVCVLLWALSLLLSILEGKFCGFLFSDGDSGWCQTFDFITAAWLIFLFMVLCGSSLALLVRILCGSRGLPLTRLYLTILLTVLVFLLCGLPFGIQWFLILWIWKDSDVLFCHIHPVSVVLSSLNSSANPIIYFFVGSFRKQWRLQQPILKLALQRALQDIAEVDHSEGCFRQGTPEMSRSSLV
Experimental: Mouse peritoneal mast cells were purified and imaged as previously described ([4]). Mast cells were resuspended at 5 × 10^5 to 1 × 10^6 cells/mL in DMEM with 10% FBS and recombinant mouse SCF (25 ng/mL) and plated onto glass cover slips coated with fibronectin (30 µg/mL). For imaging, after 2 h of incubation at 37°C, 5% CO2, mast cells were loaded with Fluo-4 along with 0.02% Pluronic F-127 for 30 min at room temperature, washed three times in calcium imaging buffer (CIB), and used immediately for imaging. Cells were used within 2 h of loading. Cells were identified as responding if the [Ca^2+] rose by at least 50% for >10 s.
(§1) Figure 6 Oral treatment with the potent and selective MRGPRX2 antagonist, Compound B (3 mg/kg), blocks Cpd 48/80–induced itch response using human MRGPRX2 knock-in mice. […] Average ± SD blood-free concentration of antagonist measured at end of “itch” observation period was 19 ± 16 nM Compound B.

[2] = Blood-free concentration at end of itch observation period; format: in vivo, mouse; details: 3 mg/kg PO, average ± SD
Experimental: as §1
This study provides pharmacological evidence that MRGPRX2 is solely responsible for mediating an SP response in a human tissue, in this instance, skin. Finally, human MRGPRX2 knock-in mice were used to provide initial proof of target engagement of MRGPRX2 antagonists in the skin using an established behavioral scratching model.

[3] = system: wild-type mice (C57BL6J strain); test: Cpd 48/80-induced itch behavioral study in wild-type mice; format: in vivo, mouse
Experimental: On the day of the experiment, animals were allowed to acclimatize to the test chamber for 10 min prior to injection. Mice received a single PO dose of Compound B (or vehicle) as a suspension in 1% methylcellulose at a dose level of 3 mg/kg (dose volume 10 mL/kg). Scratching behavior was monitored over 30 min following a single intra-dermal injection of 10 μL of Cpd 48/80 (10 μg/mL) or vehicle (saline) at 3 h post-dose of the antagonist. A bout of scratching was defined as a hindpaw directed continuous scratching movement at the injection site. The scratching behavior scorer was blinded to treatment.
Supplemental Figure 3: Oral treatment with the potent and selective human MRGPRX2 […]
type mice. The itch behavioral study for wild-type mice (C57BL6J strain) was performed the same way as descripted in the Methods section as for human MRGPRX2 knock-in mice. Compound 48/80 […]
control (18.4 +/- 3.8, n=7) mice (mean +/- SEM; *P < 0.05, Student's t test). As expected, no effect on the scratching behavior (39.8 +/- 12.6, n=6; P=0.795) was observed by oral administration of Compound B to the Compound 48/80 treated mice. […]

[4] = Pharmacokinetic profile

Compound: C[C@@H](C(=O)Nc1cnc(Oc2ccc(F)cc2F)cn1)N1CCC(F)(F)[C@@H](c2cc[n+]([O-])cc2)C1 [Compound B]
- Effect on Cpd 48/80-mediated activation of peritoneal mast cells [1]: completely antagonize
- Blood-free concentration of antagonist [2]: 19 ± 16 nM and 19 nM
- Effect on Cpd 48/80-induced scratching behavior ([3]; 3 mg/kg oral, wild-type mice): did not block; also recorded: no effect was observed
- Scratching counts ([3]; Compound B 3 mg/kg oral in Compound 48/80 treated wild-type mice, mean +/- SEM, n=6): 39.8 +/- 12.6
- In vivo PK profile [4]: good in vivo PK profile
- Oral bioavailability ([4]; in vivo, po): good oral bioavailability

Source: paper PMC11527646, “Pharmacological blockade of the mast cell MRGPRX2 receptor supports investigation of its relevance in skin disorders” (Frontiers in Immunology, 2024)
